According to ChEMBL document CHEMBL1153895, “Discovery of 4,6-bis-anilino-1H-pyrrolo[2,3-d]pyrimidines: potent inhibitors of the IGF-1R receptor tyrosine kinase” (Bioorg Med Chem Lett, 2009):

Tests used:
[1] = molecular target: T1, Insulin-like growth factor 1 receptor (Homo sapiens, UniProt P08069); assay: Inhibition of GST-tagged human IGF1R expressed in Sf9 cells by Wallac Victor fluorometer
[2] = molecular target: T1, Insulin-like growth factor 1 receptor; assay: Inhibition of human IGF1R phosphorylation expressed in HEK293 cells by DELFIA; format: cell-based
Aurora kinase B = Aurora kinase B (Homo sapiens, UniProt Q96GD4); assay: Inhibition of Aurora B
Aurora kinase B, sequence (Q96GD4 whole entry): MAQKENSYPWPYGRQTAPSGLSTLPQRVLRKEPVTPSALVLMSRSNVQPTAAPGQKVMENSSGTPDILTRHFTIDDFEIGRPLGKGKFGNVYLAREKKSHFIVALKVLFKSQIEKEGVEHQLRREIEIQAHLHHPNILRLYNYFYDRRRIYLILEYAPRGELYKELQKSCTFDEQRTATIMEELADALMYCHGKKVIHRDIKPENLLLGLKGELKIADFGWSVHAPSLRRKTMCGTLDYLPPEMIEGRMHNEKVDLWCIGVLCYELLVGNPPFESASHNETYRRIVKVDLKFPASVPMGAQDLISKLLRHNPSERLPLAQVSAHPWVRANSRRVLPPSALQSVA

[3] = Bioavailability in rat at 2.3 mg/kg, iv and 10.7 mg/kg, po; format: ADME, organism-based; conditions: in vivo
Rattus norvegicus [4] = assay: Dose normalized AUC in rat at 2.3 mg/kg, iv and 10.7 mg/kg, po; format: ADME, organism-based; conditions: in vivo
[5] = Cmax in rat at 2.3mg/kg, iv and 10.7 mg/kg, po; format: ADME, organism-based; parameters: dose 10.7 mg/kg, route oral; conditions: in vivo
[6] = Clearance in rat at 2.3 mg/kg, iv; format: ADME, organism-based; parameters: dose 2.3 mg/kg, route intravenous; conditions: in vivo
Rattus norvegicus [7] = assay: Volume of distribution at steady state in rat at 2.3mg/kg, iv and 10.7 mg/kg, po; format: ADME, organism-based; parameters: dose 10.7 mg/kg, route oral; conditions: in vivo
Rattus norvegicus [8] = assay: Dose normalized AUC in rat at 4.2 mg/kg, iv and 13.6 mg/kg, po; format: ADME, organism-based; conditions: in vivo
[9] = Clearance in rat at 4.2 mg/kg, iv; format: ADME, organism-based; parameters: dose 4.2 mg/kg, route intravenous; conditions: in vivo
[10] = Cmax in rat at 4.2mg/kg, iv and 13.6 mg/kg, po; format: ADME, organism-based; parameters: dose 13.6 mg/kg, route oral; conditions: in vivo
Rattus norvegicus [11] = assay: Volume of distribution at steady state in rat at 4.2mg/kg, iv and 13.6 mg/kg, po; format: ADME, organism-based; parameters: dose 13.6 mg/kg, route oral; conditions: in vivo
[12] = Bioavailability in rat at 4.2 mg/kg, iv and 13.6 mg/kg, po; format: ADME, organism-based; conditions: in vivo
[13] = Clearance in rat at 2.0 mg/kg, iv; format: ADME, organism-based; parameters: dose 2 mg/kg, route intravenous; conditions: in vivo
Rattus norvegicus [14] = assay: Volume of distribution at steady state in rat at 2.0mg/kg, iv and 10.6 mg/kg, po; format: ADME, organism-based; parameters: dose 10.6 mg/kg, route oral; conditions: in vivo
[15] = Cmax in rat at 2.0mg/kg, iv and 10.6 mg/kg, po; format: ADME, organism-based; parameters: dose 10.6 mg/kg, route oral; conditions: in vivo
Rattus norvegicus [16] = assay: Dose normalized AUC in rat at 2.0 mg/kg, iv and 10.6 mg/kg, po; format: ADME, organism-based; conditions: in vivo
[17] = Bioavailability in rat at 2.0 mg/kg, iv and 10.6 mg/kg, po; format: ADME, organism-based; conditions: in vivo
Rattus norvegicus [18] = assay: Dose normalized AUC in rat at 2.1 mg/kg, iv and 9.2 mg/kg, po; format: ADME, organism-based; conditions: in vivo
[19] = Volume of distribution at steady state in rat at 2.1 mg/kg, iv and 9.2 mg/kg, po; format: ADME, organism-based; conditions: in vivo, read-out: Vdss
[20] = Cmax in rat at 2.1 mg/kg, iv and 9.2 mg/kg, po; format: ADME, organism-based; conditions: in vivo
[21] = Bioavailability in rat at 1.7 mg/kg, iv and 10.5 mg/kg, po; format: ADME, organism-based; conditions: in vivo
Rattus norvegicus [22] = assay: Dose normalized AUC in rat at 1.7 mg/kg, iv and 10.5 mg/kg, po; format: ADME, organism-based; conditions: in vivo
[23] = Clearance in rat at 1.7 mg/kg, iv; format: ADME, organism-based; parameters: dose 1.7 mg/kg, route intravenous; conditions: in vivo
[24] = Volume of distribution at steady state in rat at 1.7 mg/kg, iv and 10.5 mg/kg, po; format: ADME, organism-based; conditions: in vivo, read-out: Vdss
[25] = Cmax in rat at 1.7 mg/kg, iv and 10.5 mg/kg, po; format: ADME, organism-based; conditions: in vivo
[26] = molecular target: ALK tyrosine kinase receptor (Homo sapiens, UniProt Q9UM73); assay: Inhibition of ALK
ALK tyrosine kinase receptor, sequence (Q9UM73 whole entry): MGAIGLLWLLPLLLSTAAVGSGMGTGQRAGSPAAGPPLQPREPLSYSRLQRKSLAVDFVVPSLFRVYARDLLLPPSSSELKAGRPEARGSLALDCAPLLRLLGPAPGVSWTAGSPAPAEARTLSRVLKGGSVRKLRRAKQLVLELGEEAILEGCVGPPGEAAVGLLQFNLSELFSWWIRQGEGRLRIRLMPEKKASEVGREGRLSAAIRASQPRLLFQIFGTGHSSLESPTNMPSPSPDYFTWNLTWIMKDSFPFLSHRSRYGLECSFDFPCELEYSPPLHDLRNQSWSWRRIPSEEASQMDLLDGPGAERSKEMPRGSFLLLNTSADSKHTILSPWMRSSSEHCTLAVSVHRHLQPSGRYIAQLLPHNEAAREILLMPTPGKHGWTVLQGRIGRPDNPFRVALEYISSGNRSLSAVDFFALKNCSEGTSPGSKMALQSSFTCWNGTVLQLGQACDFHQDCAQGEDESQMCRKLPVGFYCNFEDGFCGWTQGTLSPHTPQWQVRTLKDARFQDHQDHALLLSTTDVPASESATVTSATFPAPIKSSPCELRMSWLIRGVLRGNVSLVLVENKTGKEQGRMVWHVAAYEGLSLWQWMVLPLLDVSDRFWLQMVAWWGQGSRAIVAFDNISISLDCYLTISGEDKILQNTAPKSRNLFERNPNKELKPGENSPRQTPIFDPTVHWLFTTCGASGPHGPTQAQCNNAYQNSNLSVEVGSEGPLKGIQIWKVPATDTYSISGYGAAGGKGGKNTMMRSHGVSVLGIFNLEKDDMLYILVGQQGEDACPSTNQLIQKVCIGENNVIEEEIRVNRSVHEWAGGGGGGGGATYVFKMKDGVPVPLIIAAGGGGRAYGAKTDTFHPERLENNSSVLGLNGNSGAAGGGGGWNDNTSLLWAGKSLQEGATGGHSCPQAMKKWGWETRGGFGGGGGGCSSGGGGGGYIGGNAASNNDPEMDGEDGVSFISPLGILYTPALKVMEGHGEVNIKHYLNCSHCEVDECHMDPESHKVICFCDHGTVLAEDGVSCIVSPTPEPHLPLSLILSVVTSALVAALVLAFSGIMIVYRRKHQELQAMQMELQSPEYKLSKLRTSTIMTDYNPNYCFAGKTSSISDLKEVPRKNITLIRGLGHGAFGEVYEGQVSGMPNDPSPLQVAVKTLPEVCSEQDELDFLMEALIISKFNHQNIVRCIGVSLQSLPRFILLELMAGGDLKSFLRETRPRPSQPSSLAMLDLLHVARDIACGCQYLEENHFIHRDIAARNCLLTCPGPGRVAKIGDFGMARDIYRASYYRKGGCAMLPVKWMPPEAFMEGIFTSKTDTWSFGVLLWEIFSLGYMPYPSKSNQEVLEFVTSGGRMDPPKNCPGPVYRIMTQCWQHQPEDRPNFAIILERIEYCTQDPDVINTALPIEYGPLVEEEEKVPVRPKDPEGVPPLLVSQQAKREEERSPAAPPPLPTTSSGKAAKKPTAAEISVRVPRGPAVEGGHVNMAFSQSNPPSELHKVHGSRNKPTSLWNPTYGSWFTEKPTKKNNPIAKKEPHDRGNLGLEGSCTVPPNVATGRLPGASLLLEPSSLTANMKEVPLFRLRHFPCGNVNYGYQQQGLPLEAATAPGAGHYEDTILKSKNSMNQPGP

Insulin receptor = Insulin receptor (Homo sapiens, UniProt P06213); assay: Inhibition of human IR
Insulin receptor, sequence (P06213 28-758 limits assumed): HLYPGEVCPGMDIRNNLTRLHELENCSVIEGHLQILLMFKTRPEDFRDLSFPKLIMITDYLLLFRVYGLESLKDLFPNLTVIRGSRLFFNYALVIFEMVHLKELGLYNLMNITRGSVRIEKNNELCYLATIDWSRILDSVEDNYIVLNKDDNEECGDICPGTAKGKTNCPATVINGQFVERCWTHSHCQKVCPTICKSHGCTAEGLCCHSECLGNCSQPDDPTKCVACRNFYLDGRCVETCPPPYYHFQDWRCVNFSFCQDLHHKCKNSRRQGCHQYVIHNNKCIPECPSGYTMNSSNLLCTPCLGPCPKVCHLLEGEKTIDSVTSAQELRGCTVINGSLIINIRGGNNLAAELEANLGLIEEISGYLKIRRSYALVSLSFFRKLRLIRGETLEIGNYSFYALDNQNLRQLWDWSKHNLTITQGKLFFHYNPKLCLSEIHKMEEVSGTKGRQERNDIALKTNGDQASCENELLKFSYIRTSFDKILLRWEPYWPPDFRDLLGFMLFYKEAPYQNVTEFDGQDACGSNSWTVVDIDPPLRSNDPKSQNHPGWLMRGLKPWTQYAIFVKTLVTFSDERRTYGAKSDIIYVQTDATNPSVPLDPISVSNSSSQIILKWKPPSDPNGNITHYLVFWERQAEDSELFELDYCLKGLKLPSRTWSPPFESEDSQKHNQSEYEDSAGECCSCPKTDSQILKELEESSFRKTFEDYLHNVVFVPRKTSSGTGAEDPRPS
Insulin receptor, sequence (P06213 763-1382 limits assumed): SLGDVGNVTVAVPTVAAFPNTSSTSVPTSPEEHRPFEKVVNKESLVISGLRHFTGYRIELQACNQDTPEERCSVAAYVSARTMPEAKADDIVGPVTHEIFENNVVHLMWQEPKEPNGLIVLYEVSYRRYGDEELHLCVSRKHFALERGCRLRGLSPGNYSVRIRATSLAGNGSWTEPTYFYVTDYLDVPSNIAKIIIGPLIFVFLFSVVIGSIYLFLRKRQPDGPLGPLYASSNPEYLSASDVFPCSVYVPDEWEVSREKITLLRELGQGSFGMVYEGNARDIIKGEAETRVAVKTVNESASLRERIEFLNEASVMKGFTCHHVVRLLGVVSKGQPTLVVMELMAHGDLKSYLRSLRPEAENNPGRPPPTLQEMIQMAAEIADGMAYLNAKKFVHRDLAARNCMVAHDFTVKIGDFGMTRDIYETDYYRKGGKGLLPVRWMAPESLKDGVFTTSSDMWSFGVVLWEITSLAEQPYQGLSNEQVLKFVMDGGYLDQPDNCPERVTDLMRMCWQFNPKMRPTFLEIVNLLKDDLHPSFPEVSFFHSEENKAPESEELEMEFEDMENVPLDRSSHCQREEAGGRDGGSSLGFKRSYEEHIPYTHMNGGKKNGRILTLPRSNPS

[27] = molecular target: Mitogen-activated protein kinase 8 (Homo sapiens, UniProt P45983); assay: Inhibition of JNK1
Mitogen-activated protein kinase 8, sequence (P45983 whole entry): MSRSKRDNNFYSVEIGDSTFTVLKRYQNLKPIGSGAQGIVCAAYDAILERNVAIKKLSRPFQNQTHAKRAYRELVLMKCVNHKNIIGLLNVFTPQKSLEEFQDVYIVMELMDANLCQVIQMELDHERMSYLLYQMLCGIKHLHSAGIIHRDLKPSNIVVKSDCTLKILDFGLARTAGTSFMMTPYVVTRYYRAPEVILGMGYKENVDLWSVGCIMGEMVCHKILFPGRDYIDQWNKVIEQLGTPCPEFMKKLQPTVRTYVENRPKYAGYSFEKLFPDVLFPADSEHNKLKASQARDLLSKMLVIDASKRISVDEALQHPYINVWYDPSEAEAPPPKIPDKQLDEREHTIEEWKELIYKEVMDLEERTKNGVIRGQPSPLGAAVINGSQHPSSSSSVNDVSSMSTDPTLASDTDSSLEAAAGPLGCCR

T1 sequence (P08069 31-736 limits assumed): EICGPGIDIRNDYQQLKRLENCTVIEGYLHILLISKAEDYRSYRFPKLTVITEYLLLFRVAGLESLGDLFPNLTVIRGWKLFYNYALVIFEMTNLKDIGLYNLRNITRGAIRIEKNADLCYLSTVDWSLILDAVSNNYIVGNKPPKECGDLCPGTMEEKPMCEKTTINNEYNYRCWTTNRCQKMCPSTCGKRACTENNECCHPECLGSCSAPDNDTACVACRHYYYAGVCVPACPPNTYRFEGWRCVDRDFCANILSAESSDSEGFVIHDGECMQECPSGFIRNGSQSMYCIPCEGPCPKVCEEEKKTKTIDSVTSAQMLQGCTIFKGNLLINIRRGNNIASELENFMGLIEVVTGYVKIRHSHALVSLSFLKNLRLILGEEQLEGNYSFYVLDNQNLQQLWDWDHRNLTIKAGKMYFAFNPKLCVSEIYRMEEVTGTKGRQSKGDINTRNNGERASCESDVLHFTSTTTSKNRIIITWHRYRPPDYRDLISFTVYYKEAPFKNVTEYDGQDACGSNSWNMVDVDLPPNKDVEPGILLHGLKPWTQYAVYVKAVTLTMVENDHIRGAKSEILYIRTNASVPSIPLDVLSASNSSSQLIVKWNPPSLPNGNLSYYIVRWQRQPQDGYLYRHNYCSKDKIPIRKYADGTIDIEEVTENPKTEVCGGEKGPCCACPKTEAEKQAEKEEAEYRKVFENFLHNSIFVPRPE
T1 sequence (P08069 741-1367 limits assumed): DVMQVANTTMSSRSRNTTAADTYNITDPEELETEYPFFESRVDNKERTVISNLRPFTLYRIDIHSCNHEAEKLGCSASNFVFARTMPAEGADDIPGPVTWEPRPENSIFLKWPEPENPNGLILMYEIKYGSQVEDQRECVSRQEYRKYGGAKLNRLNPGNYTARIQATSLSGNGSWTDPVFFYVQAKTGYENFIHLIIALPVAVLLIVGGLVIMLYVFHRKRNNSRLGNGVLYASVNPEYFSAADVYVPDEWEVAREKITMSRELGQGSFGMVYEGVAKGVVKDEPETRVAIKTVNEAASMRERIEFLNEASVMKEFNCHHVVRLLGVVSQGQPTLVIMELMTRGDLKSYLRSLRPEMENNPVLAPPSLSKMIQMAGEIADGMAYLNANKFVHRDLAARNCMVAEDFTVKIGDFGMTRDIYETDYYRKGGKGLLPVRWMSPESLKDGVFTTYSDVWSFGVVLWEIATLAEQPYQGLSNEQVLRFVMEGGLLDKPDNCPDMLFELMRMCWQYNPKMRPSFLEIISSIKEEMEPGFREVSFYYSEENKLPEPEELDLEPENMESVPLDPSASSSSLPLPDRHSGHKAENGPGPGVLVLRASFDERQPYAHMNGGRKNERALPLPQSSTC

Row | Structure (SMILES) | IC50 [1] | IC50 [2] | other results
1 | CCCN1CCC=C(c2ccc(Nc3nc(Nc4ccccc4C(N)=O)c4cc[nH]c4n3)c(F)c2)C1 | 1.6 nM | 317 nM | IC50 (Aurora kinase B): 1600 nM
2 | COc1cc(N2CCN(C(C)C)CC2)ccc1Nc1nc(Nc2cc(F)ccc2C(N)=O)c2cc[nH]c2n1 | 0.8 nM | 130 nM | –
3 | COc1cc(N2CCN(C(C)C)CC2)ccc1Nc1nc(Nc2ccc(F)c(F)c2C(N)=O)c2cc[nH]c2n1 | – | 213 nM | –
4 | COc1cc(N2CCN(C(C)C)CC2)ccc1Nc1nc(Nc2cc(F)cc(F)c2C(N)=O)c2cc[nH]c2n1 | – | 90 nM | bioavailability [3]: 37%; AUC (Rattus norvegicus [4]): 117 ng·h/mL/mg/kg; Cmax [5]: 200 ng/mL; clearance [6]: 46 mL/min/kg; Vdss (Rattus norvegicus [7]): 11 L/kg
5 | COc1cc(C)c(N2CCN(C(C)C)CC2)cc1Nc1nc(Nc2cccc(F)c2C(N)=O)c2cc[nH]c2n1 | 20 nM | 270 nM | –
6 | CCCN1CCC=C(c2ccc(Nc3nc(Nc4ccccc4C(N)=O)c4cc[nH]c4n3)c(C(F)(F)F)c2)C1 | 20 nM | > 10000 nM | –
7 | COc1c(Nc2nc(Nc3cccc(F)c3C(N)=O)c3cc[nH]c3n2)ccc(N2CCN(C(C)C)CC2)c1F | 4 nM | 574 nM | –
8 | CCCN1CCC=C(c2ccc(Nc3nc(Nc4cc(F)ccc4C(N)=O)c4cc[nH]c4n3)c(OC(C)C)c2)C1 | 3.2 nM | 2240 nM | –
9 | COc1cc(N2CCN(C(C)C)CC2)ccc1Nc1nc(Nc2cc(F)c(F)cc2C(N)=O)c2cc[nH]c2n1 | 0.5 nM | 53 nM | AUC (Rattus norvegicus [8]): 114 ng·h/mL/mg/kg; clearance [9]: 64 mL/min/kg; Cmax [10]: 152 ng/mL; Vdss (Rattus norvegicus [11]): 17 L/kg; bioavailability [12]: 45%
10 | CNC(=O)c1c(F)cccc1Nc1nc(Nc2ccc(N3CCN(C(C)C)CC3)cc2OC)nc2[nH]ccc12 | 5 nM | 370 nM | clearance [13]: 32 mL/min/kg; Vdss (Rattus norvegicus [14]): 22.3 L/kg; Cmax [15]: 418 ng/mL; AUC (Rattus norvegicus [16]): 277 ng·h/mL/mg/kg; bioavailability [17]: 83%
11 | COc1cc(N2CCN(C(C)C)CC2)ccc1N(C)c1nc(Nc2cccc(F)c2C(N)=O)c2cc[nH]c2n1 | 50 nM | – | –
12 | COc1cc(N2CCN(C(C)C)CC2)ccc1Nc1nc(Nc2cccc(F)c2C(N)=O)c2ccn(C)c2n1 | 10000 nM | – | –
13 | COc1cc(N2CCN(C(C)C)CC2)c(OC)cc1Nc1nc(Nc2cccc(F)c2C(N)=O)c2cc[nH]c2n1 | 3.2 nM | 90 nM | –
14 | COc1cc(N2CCN(C(C)C)CC2)ccc1Nc1nc(Nc2ccc(F)cc2C(=O)NO)c2cc[nH]c2n1 | 6.3 nM | 613 nM | –
15 | COc1cc(N2CCN(C(C)C)CC2)c(F)cc1Nc1nc(Nc2cccc(F)c2C(N)=O)c2cc[nH]c2n1 | 2 nM | 190 nM | –
16 | COc1cc(N2CCN(C(C)C)CC2)c(C)cc1Nc1nc(Nc2cccc(F)c2C(N)=O)c2cc[nH]c2n1 | 2 nM | 38 nM | –
17 | CCCN1CCC=C(c2ccc(Nc3nc(Nc4cc(F)ccc4C(N)=O)c4cc[nH]c4n3)c(OC)c2)C1 | 0.8 nM | 82 nM | –

Row | Structure (SMILES) | IC50 [1] | IC50 [2] | other results
18 | CCCN1CCN(c2ccc(Nc3nc(Nc4cc(F)ccc4C(N)=O)c4cc[nH]c4n3)c(OC)c2)CC1 | 1.6 nM | 122 nM | –
19 | CCCN1CCC=C(c2ccc(Nc3nc(Nc4ccccc4C(N)=O)c4cc[nH]c4n3)cc2)C1 | 1.6 nM | – | IC50 (Aurora kinase B): 5 nM
20 | COc1cc(N2CCOCC2)ccc1Nc1nc(Nc2cc(F)ccc2C(N)=O)c2cc[nH]c2n1 | 1.6 nM | 68 nM | –
21 | COc1cc(N2CCN(C(C)C)CC2)ccc1Nc1nc(Nc2ccc(F)cc2C(=O)NCCO)c2cc[nH]c2n1 | 5 nM | 650 nM | –
22 | COc1cc(N2CCN(C(C)C)CC2)ccc1Nc1nc(Nc2cccc(F)c2C(N)=O)c2cc[nH]c2n1 | – | 109 nM | AUC (Rattus norvegicus [18]): 156 ng·h/mL/mg/kg; Vd [19]: 18.5 L/kg; Cmax [20]: 184 ng/mL
23 | COCCNC(=O)c1cc(F)ccc1Nc1nc(Nc2ccc(N3CCN(C(C)C)CC3)cc2OC)nc2[nH]ccc12 | 25 nM | 760 nM | –
24 | COc1cc(N2CCN(C(C)C)CC2)c(Cl)cc1Nc1nc(Nc2cccc(F)c2C(N)=O)c2cc[nH]c2n1 | 1.6 nM | 65 nM | –
25 | COc1cc(N2CCN(C(C)C)CC2)ccc1Nc1nc(Nc2ccccc2C(N)=O)c2cc[nH]c2n1 | 1 nM | 71 nM | bioavailability [21]: 37%; AUC (Rattus norvegicus [22]): 35 ng·h/mL/mg/kg; clearance [23]: 142 mL/min/kg; Vd [24]: 19.5 L/kg; Cmax [25]: 69 ng/mL
26 | CCCN1CCC=C(c2ccc(Nc3nc(Nc4ccccc4C(N)=O)c4cc[nH]c4n3)c(OC)c2)C1 | 0.6 nM | 104 nM | IC50 (Aurora kinase B): > 10000 nM
27 | CNC(=O)c1cc(F)ccc1Nc1nc(Nc2ccc(N3CCN(C(C)C)CC3)cc2OC)nc2[nH]ccc12 | 3.2 nM | 135 nM | –
28 | COc1c(Nc2nc(Nc3cccc(F)c3C(N)=O)c3cc[nH]c3n2)ccc(N2CCN(C(C)C)CC2)c1C | 8 nM | 3700 nM | –
29 | COc1ccc(N2CCN(C(C)C)CC2)cc1Nc1nc(Nc2cccc(F)c2C(N)=O)c2cc[nH]c2n1 | 4 nM | 160 nM | –
30 | CCCN1CCCC(c2ccc(Nc3nc(Nc4cc(F)ccc4C(N)=O)c4cc[nH]c4n3)c(OC)c2)C1 (racemic) [GSK-1173862A] | 0.4 nM | 60 nM | –
31 | CCCN1CCC=C(c2ccc(Nc3nc(Nc4ccccc4C(N)=O)c4cc[nH]c4n3)c(C)c2)C1 [GSK-994854A] | 5 nM | – | IC50 [26]: 1 nM; IC50 (Insulin receptor): 6.3 nM; IC50 [27]: 12 nM
32 | COc1cc(N2CCN(C(C)C)CC2)ccc1Nc1nc(Nc2ccc(F)cc2C(N)=O)c2cc[nH]c2n1 [GSK-1220512A] | 0.8 nM | 60 nM | –
33 | CCCN1CCC(c2ccc(Nc3nc(Nc4cc(F)ccc4C(N)=O)c4cc[nH]c4n3)c(OC)c2)CC1 [GSK-1326255A] | 0.3 nM | 47 nM | –
34 | COc1cc(N2CCN(C(C)C)CC2)ccc1Nc1nc(Nc2ccc(F)cc2C(=O)NC[C@@H](O)CO)c2cc[nH]c2n1 [GSK-1392956A] | 16 nM | 5600 nM | –
